Entries after “also recorded” stand apart in the source; their conditions may differ. Square brackets hold non-standard residues; d marks the D form. Primed or numbered codes have the meaning given here. Ends that are not written are not given here. Peptide text beside a SMILES is read from it. * marks the point of attachment. PEG2′ = N-terminal cap of 2 polyethylene glycol units (PEG2); PEG4′ = N-terminal cap of 4 polyethylene glycol units (PEG4); 5FAM = O=C1OC2(c3ccc(O)cc3Oc3cc(O)ccc32)c2ccc(C(=O)*)cc21; Butanoyl(4-maleimido) = O=C1C=CC(=O)N1CCCC(=O)*; Stearoyl = CCCCCCCCCCCCCCCCCC(=O)*; Palmitoyl = CCCCCCCCCCCCCCCC(=O)*; Myristoyl = CCCCCCCCCCCCCC(=O)*; Hexanoyl = CCCCCC(=O)*
Tests used:
[1] = system: CD4 T cells secreting atopy associated cytokines; experiment: Ex vivo FACS of PBMCs from atopic mice cultured with peptides; format: cell-based, mouse; settings: 3 μg/ml, 24 hours, compared to untreated control group (ADC), FIG. 10
Protocol: After removing hair from 6-week-old Balb/c male mice, application was performed with 1% DNCB 1 time/day for 2 days and 0.5% DNCB 1 time/day for 3 days for a total of 5 days to induce atopic symptoms. PBMCs were isolated from atopic mice, seeded in 24 well plates, treated with peptides, cultured for 24 hours, and then analyzed by FACS. PBMCs isolated from normal mice and atopy-induced mice were used as control groups, and peptides were treated to PBMC cultures isolated from atopic mice. Dupixent was used for the peptide control group (Dupixent 5 μg/ml). A900, A900P, A900H, A900S, A900M, A900MAL, A900PEG2, and A900PEG4 were used as the peptides, and the concentration was set to 3 μg/ml. Surface was stained with anti-CD4 antibodies, cytokines were subjected to intracellular staining, and the frequency of double stained population was measured.

IL-4, IL-13, IL-21 = experiment: Real-time PCR of cytokines in splenocytes and lymph node cells from atopic mice cultured with peptides; format: cell-based, mouse; settings: 24 hours, compared to untreated control (ADC), FIGS. 11 and 12
[2] = system: cells secreting atopy associated cytokines; experiment: In vivo FACS of intracellular cytokines in PBLs after external preparation for 5 days in atopic mice; design: species or system mouse; settings: external preparation 1 μg/ml for 5 days, compared to ADC mice given PBS, FIG. 13
Protocol: (§1) After removing hair from 6-week-old Balb/c male mice, application was performed with 1% DNCB 1 time/day for 2 days and 0.5% DNCB 1 time/day for 3 days for a total of 5 days, to induce atopic symptoms (N=5-8 mice for each group). After administering the external preparation to mouse skin for 5 days in mice having atopic symptoms, peripheral blood leukocytes (PBLs) were isolated and the frequency of each cytokine expressing cell was analyzed and compared after intracellular staining with antibodies for FACS. The control group was given with an anti-inflammatory moisturizing cream external preparation (5 times) and administered with an anti-mouse IL-4 receptor antibody (100 ug/mouse) intraperitoneal injection (1 time). A900, A900M, A900MAL, and A900PEG4 were used for peptides, and the concentration was set to 1 μg/ml. Cytokines were subjected to intracellular staining to measure the frequency of stained cell population.

IL-4, IL-31, IL-17 = experiment: Cytokine expression in spleen by real-time PCR after treating atopic skin lesions with external preparation; format: in vivo, mouse; settings: external preparation on skin lesions, FIG. 9
[3] = Skin tissue penetrability, confocal microscopy of skin after topical fluorescent peptide; format: in vivo, mouse; settings: 1 μg applied to skin of ICR mice, with or without needle scratch, skin collected 2 hours later; FIG. 5
Source text: To determine the skin tissue penetration of the A900 peptide, peptide A900 peptide (A900-FAM) with fluorescent substance FAM (Carboxyfluorescein) attached to the N-terminus of A900 peptide was applied to the skin of ICR 4-week-old mice.

peritoneal macrophages [4] = experiment: Fluorescence-expressing peritoneal macrophages after intraperitoneal fluorescently labeled peptide, FACS; format: in vivo, mouse
lymph node cells = experiment: Intracellular expression and frequency of peptide in cultured lymph node cells, confocal microscopy and FACS; format: cell-based, mouse; settings: 1 μg/mL, FIG. 7
peritoneal macrophages [5] = experiment: Intracellular expression and frequency of peptide in cultured peritoneal macrophages, confocal microscopy and FACS; format: cell-based, mouse; settings: 1 μg/mL, FIG. 8
Protocol: Peritoneal macrophages were isolated from the same mouse used in FIG. 7 to culture the cell suspension. Anti-CD3 (1 μg/ml) antibodies were plated on a petri dish at room temperature for 3 hours and cells were inoculated (5×10^5 cells/well). After 1 hour, anti-CD28 antibodies (1 μg/ml), IL-23 (20 ng/ml), IL-6 (20 ng/ml), and TGF-β (5 ng/ml) were added.

[6] = system: atopic dermatitis induced with dinitrochlorobenzene (DNCB); experiment: DNCB-induced atopic dermatitis mouse model, peptide applied as external preparation; format: in vivo; settings: FIG. 1
Protocol: Experimental mice were bred in a 12-hour light/dark cycle, free of pathogens at a constant temperature of 23° C. and 55% humidity. After an adaptation period of several days, DNCB-induced atopic dermatitis was induced in mice by the following method.
First, the hair in the dorsal skin area was carefully shaved using a hair removal cream, and then 100 μL of 1% dinitrochlorobenzene (DNCB) dissolved in acetone was locally treated to exposed skin once a day for 3 days to sensitize the skin and induce atopic dermatitis.
A positive control group obtained by treating mice having atopic dermatitis with anti-inflammatory moisturizing cream (Control Cream) and Dupixent injection which is a therapeutic agent for atopic dermatitis was compared with a peptide (A900 peptide) treated group.

[7] = system: IL-4R alpha, CCR3 and CTLA-4 positive cells; experiment: FACS of splenocytes from atopic dermatitis mice after external preparation for five days; format: in vivo, mouse; settings: FIG. 2
Protocol: In order to identify whether the peptide that has the effect of alleviating atopic dermatitis inflammation has an immunoregulatory function, splenocytes and peripheral blood leukocytes (PBLs) were separately isolated after administrating the external preparation into the mouse skin for five days, surface staining was performed with antibodies for FACS, and then the frequency of cells expressing interleukin 4 receptor (IL-4R) alpha, C—C chemokine receptor type 3 (CCR3), and cytotoxic T-lymphocyte-associated protein 4 (CTLA-4) was analyzed via flow cytometry. Dupixent was administered in a form of a peritoneal injection and tested as a control group.

[8] = system: CD11b+Ly6G+, CD83+ and Foxp3+ positive cells; experiment: FACS of peripheral blood leukocytes (PBLs) from atopic dermatitis mice after peptide administration; format: in vivo, mouse; settings: FIG. 3
IL-4 = IL-4 expression in splenocytes of treated atopic dermatitis mice by real-time PCR; format: in vivo, mouse; settings: FIG. 4
[9] = system: IL-13, IL-4, TNF alpha, IL-17; experiment: Cytokines in mice having atopic dermatitis after peptide A900 treatment (summary statement); format: in vivo, mouse
[10] = system: CD4 cells secreting IL-13 and IL-31; experiment: In vivo FACS of cytokine-expressing CD4 cells in PBLs after external preparation in atopic mice; design: species or system mouse; settings: external preparation 1 μg/ml for 5 days, FIG. 14
Protocol: as §1
Peripheral blood leukocytes (PBLs) isolated from the same mice as in FIG. 13 were isolated and subjected to CD4 surface staining and intracellular staining with antibodies for FACS to analyze and compare the frequency of each cytokine-expressing CD4 cell.

[11] = external preparation for five days
[12] = PBLs of mice having atopic dermatitis

Row | Molecule | frequency of CD4 T cells secreting atopy associated cytokines [1] | IL-4 expression (IL-4, IL-13, IL-21) | IL-13 expression (IL-4, IL-13, IL-21) | IL-21 expression (IL-4, IL-13, IL-21) | expression of IL-4 (IL-4, IL-31, IL-17) | expression of IL-17 (IL-4, IL-31, IL-17) | expression of IL-31 (IL-4, IL-31, IL-17) | further results
1 | PEG4-GCVTVLRCGEIV ([PEG4′]GCVTVLRCGEIV; cysteine pairing not given here) [A900PEG4] | inhibited | inhibited | inhibited | inhibited |  |  |  | frequency of cells secreting atopy associated cytokines [2]: inhibited
2 | GCESEILCGEIV [A907] |  |  |  |  | inhibited | inhibited | inhibited | 
3 | Palmitoyl-GCVTVLRCGEIV (cysteine pairing not given here) [A900P] | inhibited | inhibited | inhibited | inhibited |  |  |  | 
4 | CC[C@H](C)[C@H](NC(=O)[C@H](CCC(=O)O)NC(=O)CNC(=O)[C@H](CS)NC(=O)[C@H](CCCNC(=N)N)NC(=O)[C@H](CC(C)C)NC(=O)[C@@H](NC(=O)[C@@H](NC(=O)[C@@H](NC(=O)[C@H](CS)NC(=O)CNC(=O)c1ccc2c(c1)C(=O)OC21c2ccc(O)cc2Oc2cc(O)ccc21)C(C)C)[C@@H](C)O)C(C)C)C(=O)N[C@H](C(=O)O)C(C)C [A900-FAM] (5FAM-GCVTVLRCGEIV-OH) |  |  |  |  |  |  |  | skin tissue penetration (fluorescence in skin tissue) [3]: fluorescence was detected in both the epidermis and dermis; fluorescence-expressing cells (peritoneal macrophages [4]; 3 μg into abdominal cavity, after 3 hours, FIG. 6): barely detected; peritoneal macrophages expressing fluorescence (peritoneal macrophages [4]; 3 μg into abdominal cavity, at 30 minutes, FIG. 6): 50%; peritoneal macrophages expressing fluorescence (peritoneal macrophages [4]; 3 μg into abdominal cavity, at 1 hour, FIG. 6): 23%; time the peptide is maintained in the cell (peritoneal macrophages [4]; 3 μg intraperitoneally, cells in the abdominal cavity): more than 1 hour; cell frequency expressing peptide (lymph node cells; 1-hour treated group): 20%; cell frequency expressing peptide (lymph node cells; 24-hour treated group): 40%; cell frequency expressing peptide (peritoneal macrophages [5]; 1-hour culture group): 10%; cell frequency expressing peptide (peritoneal macrophages [5]; 24-hour culture group): 15%
5 | Hexanoyl-GCVTVLRCGEIV (cysteine pairing not given here) [A900H] |  | inhibited | inhibited | inhibited |  |  |  | 
6 | PEG2-GCVTVLRCGEIV ([PEG2′]GCVTVLRCGEIV; cysteine pairing not given here) [A900PEG2] |  | inhibited | inhibited | inhibited |  |  |  | 
7 | GCVTELRCGEIV [A902] |  |  |  |  | inhibited | inhibited | inhibited | 
8 | Myristoyl-GCVTVLRCGEIV (cysteine pairing not given here) [A900M] | inhibited | inhibited | inhibited | inhibited |  |  |  | frequency of cells secreting atopy associated cytokines [2]: inhibited
9 | Stearoyl-GCVTVLRCGEIV (cysteine pairing not given here) [A900S] | inhibited |  |  |  |  |  |  | 
10 | GCVTVLRCGEIV [A900] | inhibited | inhibited | inhibited | inhibited | inhibited | inhibited | inhibited | atopic dermatitis symptoms ([6]; external preparation applied to mice with DNCB-induced atopic dermatitis): alleviated; speed of appearance of the effect compared with control group ([6]; versus Control Cream / Dupixent injection positive control): faster than the control group; degree of inhibition of IL-4R alpha, CCR3 and CTLA-4 positive cells compared with control administered group ([7]; control Dupixent peritoneal injection): more effective than that of the control administered group; frequency of CCR3 positive cells [7, 11]: tended to be inhibitive; also recorded: decreased; frequency of CTLA-4 positive cells [7, 11]: tended to be inhibitive; also recorded: decreased; frequency of IL-4R alpha positive cells [7, 11]: tended to be inhibitive; also recorded: decreased; frequency of CD11b+Ly6G+ positive cells [8, 12]: inhibited; frequency of CD83+ positive cells [8, 12]: inhibited; frequency of Foxp3+ positive cells [8, 12]: increased; degree of inhibition of CD11b+Ly6G+ and CD83+ positive cells compared with control administered group ([8]; PBLs): more effective than in the control administered group; IL-4 expression (IL-4): inhibited; cytokines such as IL-13, IL-4, TNF alpha, and IL-17 [9]: reduced; frequency of cells secreting atopy associated cytokines [2]: inhibited
11 | GCETVLRCGEIV [A901] |  |  |  |  | inhibited | inhibited | inhibited | 
12 | GCVTVCGEIV [A911] |  |  |  |  | inhibited | inhibited | inhibited | 
13 | GCLRCGEIV [A914] |  |  |  |  | inhibited | inhibited | inhibited | 
14 | GCETELRCGEIV [A903] |  |  |  |  | inhibited | inhibited | inhibited | 
15 | Maleimidobutyrol-GCVTVLRCGEIV ({Butanoyl(4-maleimido)}-GCVTVLRCGEIV; cysteine pairing not given here) [A900MAL] | inhibited | inhibited | inhibited | inhibited |  |  |  | frequency of cells secreting atopy associated cytokines [2]: inhibited; frequency of CD4 cells secreting IL-13 [10]: inhibited; frequency of CD4 cells secreting IL-31 [10]: inhibited

From US20240043474A1, “ANTI-INFLAMMATORY PEPTIDE FOR PREVENTING OR TREATING ATOPIC DERMATITIS” (AJOU UNIVERSITY INDUSTRY-ACADEMIC COOPERATION FOUNDATION, priority 2020, published 2024)
